This series in a line: gradient 5% acetonitrile 3 min, to 50% in 2 min, to 85% in 15 min, held 3 min, 100 µL/min. The settings on record: column: Zorbax Extend-C18 2.1 x 50 mm; eluents: water / acetonitrile, 0.1% formic acid. The gist of the method: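 Over 3 months, pure standards in mixtures of ~100 molecules were run by HPLC coupled to a quadrupole time-of-flight mass spectrometer in positive and negative ionization mode. The column was a Zorbax Extend-C18 (2.1 × 50 mm, 1.8 μm) at 100 μL/min, eluted with water and acetonitrile each holding 0.1% formic acid, with 40 μL dead and 900 μL dwell volumes. Retention time was determined from adduct peaks chosen by software and checked manually.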
Turning to `COc1ccc(NC(=O)N2CCN(CCn3c(C(F)(F)F)nc4cccnc43)CC2)cc1OC`, the RP-LC retention time is 611 s. Under `COc1ccc2[nH]c(C(=O)N3CCN(C(=O)c4ccc(Br)o4)CC3)cc2c1` stands 784 s; under `NC(=O)C1CCN(C(=O)c2cc3cccnc3n(Cc3ccccc3F)c2=O)CC1`, 666 s; under `O=C(CCc1c(-c2ccccc2)nc2ccccn12)Nc1cccc(Cl)c1`, 692 s. The molecule `CCOC(=O)c1noc2nc(C)nc(NCc3ccc(F)cc3)c12` showed an RP-LC retention time of 1030 s. Molecule `CC(C)c1ccc2c(c1)-c1ccccc1S(=O)(=O)N2CC(=O)NCc1cccnc1` gave an RP-LC retention time of 711 s. Under `O=C(Cc1nc(-c2ccccn2)n[nH]1)Nc1cccc(F)c1` stands 635 s; under `Cc1ccc(CSc2nc(CC(=O)NCc3cccnc3)cs2)cc1`, 605 s. Molecule `CS(=O)(=O)N1CCCc2cc(C(=O)NCc3ccc4c(c3)OCO4)ccc21` registered an RP-LC retention time of 779 s. In turn, `O=C(NCCc1c[nH]c2ccccc12)c1cc(S(=O)(=O)N2CCCCC2)ccc1Cl` showed an RP-LC retention time of 966 s. `CC(C)Nc1nc(-c2ccc([N+](=O)[O-])cc2)nc2ccccc12` registered an RP-LC retention time of 751 s. Regarding `O=C(c1nnn2c1COC(c1ccc(Cl)cc1)C2)N1CCN(C(=O)c2c(F)cccc2F)CC1` (stereo not drawn), the RP-LC retention time came to 951 s. With `Cc1ccccc1NC(=O)c1cc(C(C)(C)C)n2nccc2n1`, the RP-LC retention time came out at 1310 s. For `N#Cc1cccc(Cn2c(-c3nc(-c4ccccc4)no3)cccc2=O)c1`, the RP-LC retention time turned out to be 688 s. On to `CN(C)C(=O)C1CCN(c2nc3ccc(-c4ccsc4)nc3s2)CC1`, for which the RP-LC retention time was 839 s. Under `O=c1n(Cc2ccccc2Cl)nc2ccc(S(=O)(=O)N3CCOCC3)cn12` stands 824 s; under `Cc1cc(-c2nnc(NC(=O)c3ccc4c(c3)OCCO4)o2)c(C)o1`, 766 s; under `O=S(=O)(c1cccc2cccnc12)N1CCCn2nc(-c3ccncc3)cc2C1`, 610 s.

Take `CN1CCN(c2cc(C(=O)O)c3cc(F)ccc3n2)CC1`: the RP-LC retention time came out at 551 s. The molecule `CN1C(=O)c2ccccc2C(C(=O)NCc2ccccn2)C1c1cccs1` (stereo not drawn) returned an RP-LC retention time of 607 s. In turn, `CC1Oc2ccc(S(=O)(=O)N3CCC(C(=O)NCc4ccc(F)cc4)CC3)cc2NC1=O` (stereo not drawn) displayed an RP-LC retention time of 812 s. With `COc1cccc(N2CC(c3nc4ccccc4n3CC(=O)N3CCCC3)CC2=O)c1` (stereo not drawn) the figure was 619 s; with `C=CCNC(=O)c1sc(Nc2ccc(Cl)cn2)nc1C`, 746 s; with `CCN1CCN(c2cc(C)c3cc(NC(=O)C4CCCCC4)ccc3n2)CC1`, 579 s.

Regarding `CC(C)CN1C(=O)c2cccn2CC1C(=O)NCc1cccs1` (stereo not drawn), the RP-LC retention time was 754 s. For the molecule `Cc1cc(C)cc(Nc2nc(C)cc(=O)n2CC(=O)Nc2ccc3c(c2)OCCO3)c1`, the RP-LC retention time turned out to be 785 s. With `CN(C)S(=O)(=O)c1ccc2c(c1)N(CC(=O)NCc1ccc(F)cc1)C(=O)C1CCCCN21` (stereo not drawn) the figure was 896 s; with `COc1ccc(OC)c(Nc2c(-c3ccc(Cl)cc3)nc3cnccn23)c1`, 968 s. With `COc1ccc(-c2nnc(-c3ccc(C)c(S(=O)(=O)Nc4cccnc4)c3)o2)cc1OC` the figure was 722 s; with `Cc1csc(-c2cn(CC(=O)NCc3cccc(C(F)(F)F)c3)cn2)n1`, 716 s; with `CCNC(=O)C1CCCN(c2nc3ncn(CC(=O)Nc4ccc(F)cc4Cl)c(=O)c3s2)C1` (stereo not drawn), 681 s. Take `COc1cc(Cl)c(NS(=O)(=O)c2c(C)sc(C)c2-c2cc(C(F)(F)F)on2)c(OC)c1`: the RP-LC retention time stood at 1190 s.

`CC1CCN(c2cc(-n3cnc(C(=O)NCC4CCCO4)c3)ncn2)CC1` (stereo not drawn) gave an RP-LC retention time of 819 s. Under `OC1(c2ccccn2)CCOC2(CCN(Cc3cccc(Cl)c3)CC2)C1` (stereo not drawn) stands 584 s; under `COc1ccc(-c2noc(C3CC(=O)N(c4ccc5c(c4)OCO5)C3)n2)cc1OC` (stereo not drawn), 886 s; under `Cc1ccc(Nc2c(-c3ccc(C)cc3)nc3cccc(C)n23)cc1`, 782 s. Under `Cc1noc(-c2cccc(OC3CN(S(=O)(=O)c4cn(C)cn4)C3)c2)n1` stands 746 s; under `CCOc1ccc(NC(=O)Nc2nccn(-c3ccc(C(C)C)cc3)c2=O)cc1`, 1160 s. With `CC(C)Cc1ccc(S(=O)(=O)N2CCN(c3ccccn3)CC2)cc1`, the RP-LC retention time turned out to be 840 s.

For the molecule `COc1ccc(N/C=C2\C(=O)CCc3c2oc2cc(Cl)c(O)c(Cl)c32)cc1`, the RP-LC retention time was 1170 s. With `CCN1CCCn2nc(C3CCN(C(=O)c4n[nH]c5ccccc45)CC3)cc2C1=O` the figure was 629 s; with `O=C(NC1CCCCCC1)c1cn(-c2cc(-c3nc(C4CC4)no3)ccn2)cn1`, 1040 s. Consider `NC(=O)Cn1c(CCc2ccccc2)nc2ccccc21`, for which the RP-LC retention time was 581 s. Molecule `COc1ccc(-c2nc(Cc3noc(-c4ccc(C#N)cc4)n3)c(C)o2)cc1` showed an RP-LC retention time of 1070 s. `CC(=O)N1CCc2cc(N3CC(C(=O)NCCC(C)C)CC3=O)ccc21` (stereo not drawn) displayed an RP-LC retention time of 669 s. With `O=C(Nc1ccccc1C(F)(F)F)C1CCCN(C(=O)Cc2cccc3ccccc23)C1` (stereo not drawn) the figure was 998 s. The molecule `O=S(=O)(Cc1ccc(Cl)cc1)N1CCc2nc(-c3ccccc3)ncc2C1` yielded an RP-LC retention time of 1090 s. On to `CC(C)(C)NC(=O)Cc1cccn1-c1ccc(F)cc1`, for which the RP-LC retention time is 925 s.

The molecule `COc1ccc(N2CCN(C(=O)c3[nH]c(C)c(S(=O)(=O)N4CCC(C)CC4)c3C)CC2)cc1` yielded an RP-LC retention time of 896 s.

Take `Cc1cccc(N2CC(C(=O)NC3CC3)CC2=O)c1` (stereo not drawn): the RP-LC retention time worked out at 671 s. Turning to `COc1ccc(NC(=O)NC(C(=O)N2CCc3ccccc32)C(C)C)c(OC)c1` (stereo not drawn), the RP-LC retention time came out at 934 s. Under `O=S(=O)(NCc1nc(-c2ccc(-c3csc(C4CC4)n3)cc2)no1)c1ccc(Cl)cc1` stands 1190 s; under `O=C(NC1CCCCC1)C1CCCN(c2ccc(=O)n(-c3ccc(F)cc3)n2)C1` (stereo not drawn), 804 s; under `CCCS(=O)(=O)N1CCCN(C2=NS(=O)(=O)C(c3ccc(Cl)cc3)=C2C)CC1`, 934 s. With `CCN1C(=O)C(CC(=O)NCCC(C)C)Sc2ncccc21` (stereo not drawn) the figure was 738 s; with `O=C(CNC(=O)C1COc2ccccc2O1)NCCc1c[nH]c2ccccc12` (stereo not drawn), 780 s; with `Cc1cc(N2C=C(C(=O)N3CCOCC3)S(=O)(=O)c3ccc(F)cc32)ccc1F`, 814 s.

As for `Cc1c(-c2noc(-c3cccc(F)c3)n2)nnn1Cc1ccccc1`, the RP-LC retention time amounted to 1080 s. Molecule `Cc1ccc(CCNC(=O)C2CCCN(C(=O)c3cc4sccc4n3C)C2)cc1` (stereo not drawn) yielded an RP-LC retention time of 911 s. Under `COc1ccc(-c2nc3ccccc3c3nnc(SCc4cn5ccccc5n4)n23)cc1` stands 742 s; under `O=C(Nc1ccc(SCc2ccccc2F)nn1)c1cccs1`, 942 s; under `Cc1cc(NC(=O)C2CCN(C(=O)c3ccco3)CC2)no1`, 630 s. With `CN1CCCn2cc(S(=O)(=O)NCCc3ccc(Cl)cc3)cc2C1=O` the figure was 752 s; with `Cc1cc(C)cc(C(=O)NC(c2ccccc2)c2nnc(N3CCCC3)o2)c1` (stereo not drawn), 868 s. Turning to `Cc1c(-c2cccc(NC(=O)c3cc(Br)ccc3Cl)c2)nc2ncccn12`, the RP-LC retention time came out at 716 s. Turning to `Cc1nnsc1C(=O)Nc1ccc(-n2nc(C(F)(F)F)cc2C(F)(F)F)cc1`, the RP-LC retention time came out at 758 s. Consider `CCOC(=O)C1CCC(CNC(=O)N2CCC(N3CCN(Cc4ccccc4)C(=O)C3=O)CC2)CC1` (stereo not drawn), for which the RP-LC retention time is 734 s. For the molecule `Cc1cccc(-c2nc3nc(C)cc(N(CCO)CCO)n3n2)c1`, the RP-LC retention time came out at 615 s. Under `Cc1sc2ccn(CC(C)C)c(=O)c2c1C(=O)NCCN1CCN(C)CC1` stands 574 s; under `CC(C)n1nnc2cc(S(=O)(=O)N3CCCC(C(=O)N4CCN(c5ccccn5)CC4)C3)ccc21` (stereo not drawn), 644 s; under `O=C(O)C1CCN(S(=O)(=O)c2ccccc2[N+](=O)[O-])CC1`, 701 s. Under `CC(C)n1nnc2ccc(-c3noc(-c4ccc(F)cc4)n3)cc21` stands 1140 s. Under `COc1ccc(C(=S)N2CCN(c3cccc(Cl)c3)CC2)cc1` stands 1210 s; under `Cc1nn(CC(=O)N2CCN(C)CC2)c(=O)c2cc(-c3ccccc3)nn12`, 626 s; under `CCCN(C(=O)Nc1ccccc1C(=O)OCC)c1nc(-c2ccc(C3CCCCC3)cc2)cs1`, 630 s. In turn, `CCc1cc(=O)n(CC(=O)Nc2ccc3c(c2)OCO3)c(-c2cccc(F)c2)n1` yielded an RP-LC retention time of 1100 s. In turn, `Cc1cc(NS(=O)(=O)c2cn(C(C)C)c3ncccc23)ccc1F` had an RP-LC retention time of 948 s. For `Cc1c(S(=O)(=O)NC2CCCc3ccccc32)cc(C(=O)N2CCCCC2)n1C` (stereo not drawn), the RP-LC retention time is 907 s.

The record behind these values is the METLIN SMRT retention time set (Domingo-Almenara et al. 2019).
